Laboratory results from patent US7232673B2, “Antimicrobial protein from Lyophyllum shimeji” (Japan Tobacco Inc., priority 1999, dated 2007).
Blank lines part the entries; values can stand above or below the molecule they belong to.

How the values were obtained:
Test in all cases: Pyranose oxidase activity (properties of pyranose oxidase, method of Nishimura et al. 1996)
[1] = target: T1, Lyophyllum shimeji antimicrobial protein (pyranose oxidase), native, purified MonoQ fractions Nos. 42-44 containing the 65 kDa + 70 kDa proteins, SEQ ID NO:2 (Lyophyllum shimeji, UniProt Q75ZP8); type: biochemical; conditions: result in words
T1 construct: MonoQ fractions 42-44 holding the 70 kDa precursor (1-618) and 65 kDa mature form (76-618), both from a single gene; not the His-tagged E. coli product
T1 sequence (Q75ZP8 76-618): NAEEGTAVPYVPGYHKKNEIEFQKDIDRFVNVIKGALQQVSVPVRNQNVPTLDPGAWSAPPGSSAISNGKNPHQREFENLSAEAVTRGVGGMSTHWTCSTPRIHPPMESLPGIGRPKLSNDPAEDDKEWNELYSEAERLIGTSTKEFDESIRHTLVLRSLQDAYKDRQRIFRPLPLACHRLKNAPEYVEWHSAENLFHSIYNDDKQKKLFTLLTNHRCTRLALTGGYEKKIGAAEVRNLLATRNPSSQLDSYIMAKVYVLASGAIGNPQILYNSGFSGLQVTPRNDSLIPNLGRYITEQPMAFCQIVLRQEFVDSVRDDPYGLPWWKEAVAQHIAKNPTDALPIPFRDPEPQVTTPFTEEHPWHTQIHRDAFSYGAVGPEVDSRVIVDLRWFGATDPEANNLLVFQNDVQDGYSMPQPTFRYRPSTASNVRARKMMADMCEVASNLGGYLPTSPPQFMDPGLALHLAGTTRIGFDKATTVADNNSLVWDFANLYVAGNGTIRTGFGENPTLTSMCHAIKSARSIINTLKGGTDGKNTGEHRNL
Method: (§1) The amino acid sequences thus determined were searched for in a data base. […] Thus, the pyranose oxidase activity of each MonoQ fraction was measured in accordance with the method of Nishimura et al. (1996). […] Accordingly, it is estimated that the antimicrobial activity would be derived from hydrogen peroxide formed during the oxidation of glucose in the medium by this enzyme. Next, the fractions containing both of the 65 kDa and 70 kDa proteins (FIG. 2 Nos. 42–44) were exclusively concentrated and properties of pyranose oxidase were analyzed. […] The amount of the enzyme proteins (65 kDa+70 kDa) was determined by SDS-PAGE silver staining.

[2] = substrate: OC[C@H]1OC[C@H](O)[C@@H](O)[C@@H]1O; type: biochemical, Lyophyllum shimeji; conditions: other: native L. shimeji enzyme protein (65 kDa+70 kDa), table footnote (activity unit): pH 7.0, 37° C.
Method: as §1

[3] = substrate: OC[C@H]1OC(O)[C@H](O)[C@@H](O)[C@@H]1O; type: biochemical, Lyophyllum shimeji; conditions: other: native L. shimeji enzyme protein (65 kDa+70 kDa), table footnote (activity unit): pH 7.0, 37° C.
Method: as §1

- Km values to glucose [1]: low
Molecule: OC[C@H]1OC(O)[C@H](O)[C@@H](O)[C@@H]1O (stereo partly shown) [Glucose]

- Km values to 1,5-anhydroglucitol [1]: low
Molecule: OC[C@H]1OC[C@H](O)[C@@H](O)[C@@H]1O [1,5-Anhydroglucitol]

B1: Lyophyllum shimeji antimicrobial protein (pyranose oxidase), native, purified MonoQ fractions Nos. 42-44 containing the 65 kDa + 70 kDa proteins, SEQ ID NO:2 … (protein)
chain: T1 sequence (Q75ZP8 76-618)
notes: MonoQ fractions 42-44 holding the 70 kDa precursor (1-618) and 65 kDa mature form (76-618), both from a single gene; not the His-tagged E. coli product
- Km [2]: 6.5 mM
- Km [3]: 0.50 mM
